According to patent US20190031613A1, “COMPOUNDS AND METHODS FOR THEIR USE IN THE TREATMENT OF MALARIA” (University of South Florida, priority 2016, published 2019):
In brackets after ≈: the same amount, converted by molar mass. Entries after “also recorded” stand apart in the source; their conditions may differ. Where two headings read alike, the source gives them in different places.

Assays:
[1] = system: P. berghei-GFP parasites; experiment: in vivo efficacy, modified Thompson test; set-up: species or system mice
Experimental: Prodrug 6d was orally tested for in vivo efficacy at four doses (0.3 mg/kg, 1.0 mg/kg, 3.0 mg/kg, and 10 mg/kg) in 0.5% aqueous HEC solution.

[2] = in vivo pharmacokinetics in mice (plasma, LC/MS-MS)
Experimental: Plasma exposure of prodrug 6e and parent compound 1b was determined following a single oral administration at 10 mg/kg and 3 mg/kg doses in 0.5% aqueous HEC (FIG. 5b).
Compounds 1b and its prodrug 6e were administered as a single dose (10 mg/kg) in 0.5% HEC using freshly prepared solution. Parent compound 1d and its prodrugs 6c and 6d were administered as a single dose of 50 mg/kg using the same vehicle. The blood was collected in prepared 5 ml syringe containing heparin via cardiac puncture and put into 15 mL conical tube on ice. Five mice were used per one time point at 0.5 h, 1 h, 2 h, 4 h, 8 h and 24 h […] plus 2 mice as a control (not-treated). The blood was then centrifuged for 5 min at 4000 rpm and plasma supernatant collected while avoiding the whole blood pellet at the bottom of the tube. The plasma was stored at −80° C. until the day of LC/MS-MS analysis.
Compound concentrations were quantitated in plasma samples by LC/MS-MS using an Agilent triple quadrupole instrument. Chromatographic separation was conducted using an Agilent HPLC with Phenomenex Kinetex C18 column (2.6 μm particle size, 50-4.6 mm i.d.) equipped with a Phenomenex Security Guard column. The mobile phase (1.25 mL/min) consisted of 0.05% formic acid in water and 0.05% formic acid in acetonitrile mixed using a linear gradient over 7 minutes. […] Plasma samples and calibration standards were prepared by protein precipitation with acetonitrile (3 parts acetonitrile to 1 part plasma), followed by centrifugation and analysis of the supernatant. Sample concentrations were determined by comparison to calibration standards prepared in blank plasma and assayed using the same conditions. The analytical lower limit of quantitation in plasma was typically 0.75-1.00 nM and accuracy, precision and recovery were within acceptable limits.
The plasma was first warmed up on ice for about 1 hour. Then 50 μL of plasma sample was precipitated with 150 μL of cold acetonitrile with internal standard (133 nM) P4Q-95^20) following by centrifugation at 4,000 rpm for 5 min at 4° C. and transfer˜150 μL of the supernatant to LCMS vial. The samples were analyzed using Agilent triple quadruple instrument in triplicates (5 mice×3 injections for each time point). The chemical structure of P4Q-95^20 is shown below:
The calibration curve for 1d was linear in 1 to 500 nM range so samples were diluted if needed to fit this linearity and then concentration recalculated accordingly. Calibration curve was run each time following the actual PK measurements and used for that particular compound.

[3] = aqueous stability and parent compound release by quantitative HPLC
Experimental: The stability of prodrugs in aqueous media and the release of parent compound was followed for 10 h using HPLC in triplicates.
Compound stability was assessed using quantitative HPLC in buffers at different pHs (2, 4, 7), in a simulated gastric fluid (SGF) and in a simulated intestinal fluid (SIF).

[4] = aqueous solubility at pH 7.4; conditions: aqueous medium at pH 7.4 (buffer not named), pH 7.4, aqueous buffer
[5] = system: multidrug resistant malarial strain W2 (pyrimethamine and chloroquine resistant); experiment: in vitro antimalarial activity against strain W2; assay type: cell-based; conditions: strains W2 and TM90-C2B, strain not specified
Excerpt: FIG. 2a depicts the synthesis of 4(1H)-quinolones 1 via Conrad-Limpach reaction^24 and conversion to first set of prodrugs (2, 3 and 4) via O-acylation.
FIG. 4a depicts the synthesis of 4(1H)-quinolones 1 into amino AOCOM ether prodrugs 6 via O-alkylation and subsequent deprotection.

[6] = system: P. berghei; conditions: lowest single-cure dose as reported; cited from earlier work
[7] = single PO dose 10 mg/kg on day 3 PI, 0.5% aqueous HEC
[8] = oral dose 3.0 mg/kg, 0.5% aqueous HEC
[9] = oral dose 100 mg/kg, 0.5% aqueous HEC
[10] = 10 mg/kg PO, three daily doses days 3-5 PI, 0.5% aqueous HEC
[11] = 10 mg/kg PO, three daily doses days 3-5 PI, 0.5% aqueous HEC, untreated 13
[12] = 50 mg/kg PO, three daily doses days 3-5 PI, 0.5% aqueous HEC
[13] = Table 3 control: 10 mg/kg PO, three daily doses days 3-5 PI

## COc1cc2[nH]c(C)c(-c3ccc(Oc4ccc(OC(F)(F)F)cc4)cc3F)c(=O)c2cc1Cl [1b, 6-chloro-3-(2-fluoro-4-(4-(tfifluoromethoxy)phenoxy)phenyl)-7-methoxy-2-methyl-4(1H)-quinolone, reference compound]
[1]; [7]
  Day of death (avg): 13
  Suppression [%] day 6 PI: <1%
[1]; single dose of 10 mg/kg PO, 0.5% aqueous HEC
  in vivo activity: completely inactive
[2]; [8]
  AUC0→24: 228 µmol·min/L
  CL: 26.6 mL·kg/min
  Vd: 19.6 L/kg
  t1/2 apparent: 8.5 h
  tmax: 4 h
[2]; [9]
  AUC0→24: 580 µmol·min/L
  CL: 34.9 mL·kg/min
  Vd: 44 L/kg
  t1/2 apparent: 14.5 h
  tmax: 8 h
[2]; read-out: Cmax [μmol/L], oral dose 3.0 mg/kg, 0.5% aqueous HEC, parent in plasma
  Cmax: 0.31 µmol/L
[2]; read-out: Cmax [μmol/L], oral dose 100 mg/kg, 0.5% aqueous HEC
  Cmax: 0.46 µmol/L
[2]; single oral 3 mg/kg, 0.5% aqueous HEC
  Cmax: 0.31 µmol/L

## CNCCCOC(=O)OCOc1c(-c2ccc(C(F)(F)F)cc2)c(C)nc2cc(OC)c(Cl)cc12.Cl [6d, 6-Chloro-7-methoxy-2-methyl-3-(4-(trifluoromethyl)phenyl)-4-(((3-(methylammonio)propyloxycarbonyl)oxy)methoxy)quinoline, chloride salt]
[3]; buffers pH 2, 4, 7, SGF, SIF
  aqueous stability: stable at low pH values; also recorded: more stable than 6c
[3]; in 5 h at pH 7.0, parent 1d
  parent compound released: > 55%
[1]; [10]
  Suppression [%] day 6 PI: 82%
[1]; [11]
  Day of death (avg): 13
[1]; [12]
  Day of death (avg): 14
  Suppression [%] day 6 PI: 96%
[1]; 10 and 50 mg/kg PO
  life span of treated animals relative to untreated controls: do not significantly extend the life span
[2]; mouse, in vivo, po, 50 mg/kg
  AUC0→24: 11664 µmol·min/L
  AUC of 1d improved vs dosing of 1d: 52 fold
  CL: 7.8 mL·kg/min
  Cmax: 21.2 µmol/L
  Vd: 4.3 L/kg
  t1/2 apparent: 6.4 h
  tmax: 1 h

## COc1cc2nc(C)c(-c3ccccc3C)c(OC(=O)N3CCCC3)c2cc1Cl [2b, 6-Chloro-7-methoxy-2-methyl-3-(o-tolyl)-4-((pyrrolidine-1-carbonyl)oxy)quinoline]
[4]
  solubility: 2.9 µM (≈ 1.19 µg/mL)
[5]
  EC50 values fold higher than reference 4(1H)-quinolone 1c: 300 fold
  in vitro antimalarial activity / EC50 values relative to 1c: lacked in antimalarial activity

## COc1cc2[nH]c(C)c(-c3ccc(C(F)(F)F)cc3)c(=O)c2cc1Cl [1d, 6-chloro-7-methoxy-2-methyl-3-(4-(trifluoromethyl)phenyl)-4(1H)-quinolone, reference compound]
[1]; [10]
  Suppression [%] day 6 PI: 11%
[1]; [11]
  Day of death (avg): 14
[1]; [12]
  Day of death (avg): 13
  Suppression [%] day 6 PI: 10%
[2]; mouse, in vivo, po, 50 mg/kg
  AUC0→24: 222 µmol·min/L
  CL: 609.7 mL·kg/min
  Cmax: 0.36 µmol/L
  Vd: 377.7 L/kg
  maximum plasma concentration of 1d: 365 nM
  t1/2 apparent: 7.15 h
  time of maximum plasma concentration: 2 h
  tmax: 2 h

## CCN(CC)Cc1cc(Nc2ccnc3cc(Cl)ccc23)ccc1O [ADQ, reference compound]
[1]; [10]
  Suppression [%] day 6 PI: >99%
[1]; [11]
  Day of death (avg): 21
[1]; [13]
  Day of death (avg): 21
  Suppression [%] day 6 PI: >99%

## CNCCOC(=O)OCOc1c(-c2ccccc2C)c(C)nc2cc(OC)c(Cl)cc12.Cl [6a, 6-Chloro-7-methoxy-2-methyl-3-(o-tolyl)-4-(((2-(methylammonio)ethoxycarbonyl)oxy)methoxy)quinoline, chloride salt]
[1]; [10]
  Suppression [%] day 6 PI: 71%
[1]; [11]
  Day of death (avg): 16
[1]; [12]
  Day of death (avg): 13
  Suppression [%] day 6 PI: 46%

## C[C@H]1Cc2c([nH]c3cc(Cl)c(F)cc23)[C@@]2(N1)C(=O)Nc1ccc(Cl)cc12 [KAE609]
[6]
  PO dose, single exposure radical cure: 100 mg/kg
